We go through eight compounds from publication PMC11817372, “The Silkworm (Bombyx mori) Neuropeptide Orcokinin’s Efficiency in Whitening and Skincare” (International Journal of Molecular Sciences, 2025).

Where two headings read alike, the source gives them in different places.

Data set [1] concerns Tyrosinase. On the set-up: method as in PMID 23134995. The following applies: cited from earlier work. An excerpt: Neuropeptides with biological functions were called neuropeptides if they were secreted by neural tissues and involved in nervous system functions, which were characterized by low content, high activity, and extensive and complex functions (including food intake regulation, improved metabolism, neural regulation and reproduction, etc.). However, there have been few reports on the pigmentation regulation of neuropeptide. One important function of BommoOK, as a multifunctional neuropeptide, was pigmentation regulation. In silkworm q-l (quail like) mutants, BommoOK was a losing function, a ...

Data set [2] has as its system Tyrosinase. The following applies: for Inhibitory rate on tyrosinase, Average: average over 5, 0.1, 0.05 and 0.025 mmol/L; for highest inhibition rate on tyrosinase: highest rate among the tested concentrations; for effect on tyrosinase reaction course (in words): absorbance time course 10-180 s compared with negative control completed at 60 s.
Method: The peptide solution (5 mmol/L) was then diluted 50-fold (0.1 mmol/L), 100-fold (0.05 mmol/L), and 200-fold (0.025 mmol/L), respectively, and then the inhibitory rate was calculated after a 5 min reaction.
In data set [3] the test system is UV-irradiated guinea pig skin. Type of data set: in vivo, guinea pig (Cavia porcellus). The following applies: peptide solution 5 mmol/L painted on UV-irradiated back skin, sections after 24 h; for pathological tissue findings (Masson staining and HE staining): versus deionized water side. The method, then:
Model preparation: Six adult healthy guinea pigs with normal development were selected. The fur on both sides of the back was shaved to expose a circular area with a diameter of 4 cm. Ultraviolet (UV) irradiation was performed at 10 cm from the skin in the exposed area, once daily with a dose of 700 mJ/cm^2, and continued for 7 consecutive days, with a cumulative dose of […]. A metal halide lamp was used as the light source with a power of 1000 W and a peak spectrum of 360 nm, including 70% long-wave ultraviolet (UVA) and 4% medium-wave ultraviolet (UVB). After UV-irradiation treatment, the peptide solution (5 mmol/L) was painted to the right, and an equal amount of deionized water was applied to the left. Tissue sections and staining observations were performed after 24 h.
Sectioning: Approximately 0.4 cm^3 of subcutaneous tissue from the drug administration area was excised, cleaned with physiological saline, and fixed. After dehydration (DIAPATH, Donatello, Milan, Italy) and hardening treatment, it was subsequently made transparent and subjected to a wax immersion treatment. After paraffin embedding (Wuhan Junjie Electronics Co., Ltd., JB-P5, Wuhan, China), the tissue was sectioned using a microtome (Shanghai Leica Instrument Co., Ltd., RM2016, Shanghai, China). The arranged sections were organized (Zhejiang Jinhua Kedi Instrument Equipment Co., Ltd., KD-P, Jinhua, China) for HE staining and Masson staining.
HE staining: The paraffin sections were placed in xylene I for 20 min, xylene II for 20 min, anhydrous ethanol I for 5 min, anhydrous ethanol II for 5 min, and 75% alcohol for 5 min for dewaxing treatment; after washing with water, they were placed into hematoxylin staining solution for 3–5 min, differentiated with differentiation solution after washing, and returned to blue with bluing solution after washing; after rinsing with running water, they were dehydrated with 85% and 95% alcohol solutions for 5 min each successively; after immersed into eosin staining solution for 5 min, they were placed in anhydrous ethanol I for 5 min, anhydrous ethanol II for 5 min, anhydrous ethanol III for 5 min, xylene I for 5 min, and xylene II for 5 min for transparency treatment. After, they were sealed with neutral gum, they were examined (Nikon Eclipse E100, Tokyo, Japan) and imaged (Nikon DS-U3, Tokyo, Japan) using a microscope.
Masson staining: The paraffin sections were placed in xylene I for 20 min, xylene II for 20 min, anhydrous ethanol I for 5 min, anhydrous ethanol II for 5 min, and 75% alcohol for 5 min for dewaxing treatment; after washing with water, they were immersed into Masson A solution overnight, washed with water, then immersed into a mixture of Masson B and Masson C for 1 min, washed with water, then differentiated using an alcohol solution containing 1% hydrochloric acid. Then, they were washed with water, then immersed into Masson D solution for 6 min, washed with water, then immersed into Masson E solution for 1 min, drained, and directly immersed into Masson F solution for 30 s. Subsequently, the sections were rinsed with 1% glacial acetic acid for differentiation, dehydrated with anhydrous ethanol three times for 5 min each, treated with xylene for transparency for 5 min, and then sealed with neutral gum. The sections were examined (Nikon Eclipse E100, Japan) and imaged (Nikon DS-U3, Japan) using a microscope.

Data set [4] relates to B. mori. The following applies: CRISPR/cas9 tool and mature peptide subcutaneous injection; cited from earlier work.
Setting [5] is: 0.025 mmol/L, after 5 min reaction.
Setting [6] is: 0.05 mmol/L, after 5 min reaction.
The mark [7] stands for this setting: 0.1 mmol/L, after 5 min reaction.

In the case of `Oc1ccc(OC2CCCCO2)cc1` (stereo not drawn) [deoxyarbutin], the “whitening effect relative to β-arbutin” value in data set [1] is “more than 350 times”.

For `OC[C@H]1O[C@@H](Oc2ccc(O)cc2)[C@H](O)[C@@H](O)[C@@H]1O` [β-Arbutin, reference compound], the “duration of whitening effect” value in data set [1] is “more than 8 weeks”. The “Inhibitory rate on tyrosinase” value in data set [2] (setting [5]) was determined as 32.70±0.33%; in data set [2] (setting [6]), 53.61±1.27%; in data set [2] (setting [7]), 74.31±1.81%; in data set [2] (5 mmol/L, after 5 min reaction), 72.50±0.12%. For the same compound, the “Inhibitory rate on tyrosinase, Average” value in data set [2] (after 5 min reaction) is recorded as 58.28±16.85%. In addition, in data set [2], the “highest inhibition rate on tyrosinase” value is recorded as “more than 70%”.

For the compound EARHSGYLPYQMF [BommoOKA_type4], the “pathological tissue findings (Masson staining and HE staining)” value (“pathological tissue findings” for short) in data set [3] was “inflammatory factors were reduced, and epidermal hyperplasia improved”. Also, the “Inhibitory rate on tyrosinase” value in data set [2] (setting [5]) stood at 13.96±0.21%; in data set [2] (setting [6]), 17.02±0.11%; in data set [2] (5 mmol/L, after 5 min reaction), 11.28±0.22%. Also, the “effect on tyrosinase reaction course (in words)” value (shortened to “effect … (in words)”) in data set [2] was “a certain inhibitory effect on tyrosinase”. Besides, the “inhibition rate on tyrosinase, all concentrations” value in data set [2] (all concentrations (5, 0.1, 0.05, 0.025 mmol/L), after 5 min reaction) is reported as “greater than 10%”. Also, the “Inhibitory rate on tyrosinase, Average” value in data set [2] (after 5 min reaction) worked out at 15.49±3.17%. Further, the “highest inhibition rate on tyrosinase” value in data set [2] is listed as 19.69%.

With FYHLYGQNFLDIDSPVSSFD [BommoOKA_type3], the “Inhibitory rate on tyrosinase” value is recorded as 5.54±0.2% in data set [2] (setting [5]); 6.50±0.17% in data set [2] (setting [7]); 9.37±0.34% in data set [2] (5 mmol/L, after 5 min reaction). In addition, the “effect … (in words)” value in data set [2] was “a certain inhibitory effect on tyrosinase”. The “Inhibitory rate on tyrosinase, Average” value in data set [2] (after 5 min reaction) was found to be 8.27±2.42%.

Consider NFDEIDRSSLNTFV [BommoOKA_type1], for which the “melanin inhibition (melanocytes, melanin granules)” value in data set [3] (Masson and HE staining) is given as “many stretched melanin granules emerged”. The “pathological tissue findings” value in data set [3] is “loosely arranged tissues”. Besides, the “Inhibitory rate on tyrosinase” value is 5.16±0.14% in data set [2] (setting [5]); 6.88±0.19% in data set [2] (setting [6]); 2.87±0.02% in data set [2] (setting [7]); 4.02±0.07% in data set [2] (5 mmol/L, after 5 min reaction). Further, the “effect … (in words)” value in data set [2] is “seemed to tend to accelerate tyrosinase”. In addition, in data set [2] (after 5 min reaction), the “Inhibitory rate on tyrosinase, Average” value is listed as 4.73±1.48%.

Take NFDEIDRSSMPFPYAI [BommoOKA_type2]: the “pathological tissue findings” value in data set [3] was “Many inflammatory cells”. The “pigmentation inhibition in B. mori” value in data set [4] is “key for pigmentation inhibition”. Further, the “Inhibitory rate on tyrosinase” value in data set [2] (setting [5]) is on record as 6.69±0.15%; in data set [2] (setting [6]), 6.12±0.09%; in data set [2] (setting [7]), 5.16±0.09%. In addition, the “Inhibitory rate on tyrosinase, Average” value in data set [2] (after 5 min reaction) turned out to be 7.02±1.88%.

As for NLDSLGGANF [BommoOKB_type1], in data set [3], the “pathological tissue findings” value was “significant epidermal hyperplasia”. Further, the “Inhibitory rate on tyrosinase” value is reported as “greater than 10%” in data set [2] (setting [5]); 8.6±1.39% in data set [2] (setting [7]); -4.02±0.82% in data set [2] (5 mmol/L, after 5 min reaction). Further, in data set [2], the “effect … (in words)” value is on record as “a certain inhibitory effect on tyrosinase”. The “Inhibitory rate on tyrosinase, Average” value in data set [2] (after 5 min reaction) came out at 9.32±8.66%. In data set [2], the “highest inhibition rate on tyrosinase” value was 19.69%.

Consider YDYISPYG [BommoOKA_type5], for which, in data set [3], the “pathological tissue findings” value was “inflammatory factors were reduced, and epidermal hyperplasia improved”. For the same compound, the “Inhibitory rate on tyrosinase” value is given as -2.68±1.07% in data set [2] (setting [5]); 3.25±1.57% in data set [2] (setting [6]); -0.19±1.08% in data set [2] (setting [7]); 5.93±0.94% in data set [2] (5 mmol/L, after 5 min reaction). Further, the “Inhibitory rate on tyrosinase, Average” value in data set [2] (after 5 min reaction) came out at 1.58±3.28%.
